Experimental data from ChEMBL document CHEMBL1149293, “Identification of 7-phenylaminothieno- [3,2-b]pyridine-6-carbonitriles as a new class of Src kinase inhibitors” (J Med Chem, 2004).

Molecular target: Proto-oncogene tyrosine-protein kinase Src (Homo sapiens, UniProt P12931)
Test: Inhibition of Src kinase

Sequence of Proto-oncogene tyrosine-protein kinase Src (P12931 2-536 limits assumed): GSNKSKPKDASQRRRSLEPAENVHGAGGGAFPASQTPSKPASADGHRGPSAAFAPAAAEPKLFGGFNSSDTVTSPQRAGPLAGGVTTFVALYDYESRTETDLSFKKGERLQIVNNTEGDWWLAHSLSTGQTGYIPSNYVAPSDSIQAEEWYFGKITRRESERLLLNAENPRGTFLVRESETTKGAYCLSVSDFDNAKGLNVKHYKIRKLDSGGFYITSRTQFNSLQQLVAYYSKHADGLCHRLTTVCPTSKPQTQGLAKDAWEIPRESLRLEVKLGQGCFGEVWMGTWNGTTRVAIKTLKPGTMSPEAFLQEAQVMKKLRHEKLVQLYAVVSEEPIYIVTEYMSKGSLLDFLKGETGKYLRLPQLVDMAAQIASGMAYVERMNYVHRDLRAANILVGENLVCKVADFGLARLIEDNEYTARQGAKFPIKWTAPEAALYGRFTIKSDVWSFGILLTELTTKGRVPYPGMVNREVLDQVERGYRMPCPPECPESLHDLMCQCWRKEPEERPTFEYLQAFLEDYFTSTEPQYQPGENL

IC50 | Compound
> 10 µM | COc1cc(Nc2c(C#N)cnc3c(-c4ccc(CN5CCOCC5)cc4)csc23)c(Cl)cc1Cl
> 10 µM | COc1cc(Nc2c(C#N)cnc3cc(-c4ccccc4N4CCN(C)CC4)sc23)c(Cl)cc1Cl
